{"source": "patent US20240423971A1", "about": "“APPLICATION OF RIP2 INHIBITOR COMBINED WITH CHEMOTHERAPY DRUG” (NINGBO COMBIREG PHARMACEUTICAL TECHNOLOGY CO., LTD., priority 2021, published 2024)", "assay_type_in_all_cases": "in vivo, C57BL/6 mice", "key": {"[1]": {"system": "melanoma (B16F10)", "assay": "Melanoma (B16F10) tumor-bearing model, GSK583 combined with DTX", "details": "for tumor growth compared to the vehicle control group: B16-F10 s.c. in C57BL/6 mice, GSK583 1 mg/kg i.v. every 4 days x4, DTX 5 mg/kg i.v. every 7 days x3, to DAY 16", "protocol": "Both of the test substances DTX and GSK583 were prepared as a 20×DMSO stock solution, which was diluted with normal saline containing 5% polyoxyethylene castor oil (Cremophor EL) to the administration concentration before use.\nExperimental animals and tumor strains: SPF grade male wild-type C57BL/6 mice, 6 to 8 weeks old, purchased from Beijing Vital River Laboratory Animal Technology Co., Ltd. Cells used in the experiment: murine melanoma cells (B16-F10), purchased from ATCC.\nMice were randomly divided into 4 groups with 8 mice in each group based on body weight according to the method shown in (A and B of FIG. 4), namely: (i) vehicle control group; (ii) GSK583 (1 mg/kg) group; (iii) Docetaxel (DTX; 5 mg/kg) group; (iv) GSK583 (1 mg/kg)+DTX (5 mg/kg) group. DTX was administered intravenously once every 7 days for a total of 3 doses; GSK583 and vehicle control were administered intravenously once every 4 days for a total of 4 doses. The mice were subcutaneously inoculated with B16-F10 cells with a concentration of 2× 10^6 cells/mL and 0.1 mL/mouse, and the day of inoculation was recorded as DAY 0. The administration was started on DAY 1. During the administration, the animals were weighed every 2 days. The long diameter and short diameter of the tumor were measured with a vernier caliper. The tumor size was calculated by the formula: (½)×long diameter×(short diameter) 2. The mice were euthanized on DAY 16, and after dissection, the tumor was weighed and the tumor inhibition rate was calculated."}, "[2]": {"system": "melanoma (B16F10)", "assay": "Melanoma (B16F10) tumor-bearing model, GSK583 combined with GEM", "details": "GSK583 1 mg/kg; for tumor growth compared to the vehicle control group: B16-F10 s.c. in C57BL/6 mice, GEM 60 mg/kg i.v. once every 4 days, 4 doses, to DAY 15", "protocol": "The test substance GEM was prepared in normal saline, and GSK583 was prepared as a 20×DMSO stock solution, which was diluted with normal saline containing 5% polyoxyethylene castor oil (Cremophor EL) to the administration concentration before use. Experimental animals and tumor strains: SPF grade male wild-type C57BL/6 mice, 6 to 8 weeks old, purchased from Beijing Vital River Laboratory Animal Technology Co., Ltd. Cells used in the experiment: murine melanoma cells (B16-F10), purchased from ATCC. Mice were randomly divided into 4 groups with 8 mice in each group based on body weight according to the method shown in (A and B of FIG. 6), namely: (i) vehicle control group; (ii) GSK583 (1 mg/kg) group; (iii) GEM (60 mg/kg) group; (iv) GSK583 (1 mg/kg)+GEM (60 mg/kg) group. GEM, GSK583, and vehicle control were administered intravenously once every 4 days for a total of 4 doses. The mice were subcutaneously inoculated with B16-F10 cells with a concentration of 2× 10^6 cells/mL and 0.1 mL/mouse, and the day of inoculation was recorded as DAY 0. The administration was started on DAY 1. During the administration, the animals were weighed every 2 days. The long diameter and short diameter of the tumor were measured with a vernier caliper. The tumor size was calculated by the formula: (½)× long diameter×(short diameter) 2. The experiment was terminated on DAY 15. After the mice were euthanized and dissected, the tumor was weighed and photographed, and the tumor inhibition rate was calculated."}, "[3]": {"system": "colorectal cancer (MC38)", "assay": "Colorectal cancer (MC38) tumor-bearing model, GSK583 combined with GEM", "details": "GSK583 1 mg/kg; for tumor growth compared to the vehicle control group: MC38 s.c. in C57BL/6 mice, tumors 50 to 100 mm^3 at start, GEM 40 mg/kg i.v. once every 4 days, 4 doses, to DAY 14", "protocol": "The test substance GEM was prepared in normal saline, and GSK583 was prepared as a 20×DMSO stock solution, which was diluted with normal saline containing 5% polyoxyethylene castor oil (Cremophor EL) to the administration concentration before use. Experimental animals and tumor strains: SPF grade male wild-type C57BL/6 mice, 6 to 8 weeks old, purchased from Beijing Vital River Laboratory Animal Technology Co., Ltd. Cells used in the experiment: murine colorectal cancer cells (MC38), purchased from Union Cell Bank (China). According to the method shown in (A and B of FIG. 8), the mice were subcutaneously inoculated with MC38 cells with a concentration of 2×10^6 cells/mL and 0.1 mL/mouse. When the tumor grew to a volume within the range of 50 to 100 mm^3, the mice were randomly divided into 4 groups with 8 mice in each group based on tumor volume, and the administration was started with the following regimen: (i) vehicle control group; (ii) GSK583 (1 mg/kg) group; (iii) GEM (40 mg/kg) group; (iv) GSK583 (1 mg/kg)+GEM (40 mg/kg) group. GEM, GSK583, and vehicle were administered intravenously once every 4 days for a total of 4 doses. The day of grouping and administration was recorded as DAY 0. During the administration, the animals were weighed every 3 days. The long diameter and short diameter of the tumor were measured with a vernier caliper. The tumor size was calculated by the formula: (½)× long diameter× (short diameter) 2. The experiment was terminated on DAY 14. After the mice were euthanized and dissected, the tumor was weighed and photographed, and the tumor inhibition rate was calculated."}, "[4]": {"system": "melanoma (B16F10)", "assay": "Melanoma (B16F10) tumor-bearing model, GSK583 combined with PTX", "details": "B16-F10 s.c. in C57BL/6 mice; GSK583 1 mg/kg, PTX 10 mg/kg i.v. once every 4 days, 4 doses; to DAY 15", "protocol": "Both of the test substances PTX (Sigma) and GSK583 (MCE) were prepared as a 20× DMSO stock solution, which was diluted with normal saline containing 5% (v/v) polyoxyethylene castor oil (Cremophor EL) to the administration concentration before use. Experimental animals and tumor strains: SPF grade male wild-type C57BL/6 mice, 6 to 8 weeks old, purchased from Beijing Vital River Laboratory Animal Technology Co., Ltd. Cells used in the experiment: murine melanoma cell line (B16-F10), purchased from ATCC. Mice were randomly divided into 4 groups with 8 mice in each group based on body weight according to the method shown in (A of FIG. 1 and B of FIG. 1), namely: (i) vehicle control group; (ii) GSK583 (1 mg/kg) group; (iii) PTX (10 mg/kg) group; (iv) GSK583 (1 mg/kg)+PTX (10 mg/kg) group. PTX, GSK583, and vehicle were administered intravenously once every 4 days for a total of 4 doses. The mice were subcutaneously inoculated with B16-F10 cells with a concentration of 2× 10^6 cells/mL and 0.1 mL/mouse, and the day of inoculation was recorded as DAY 0. The administration was started on DAY 1. During the administration, the animals were weighed every 2 days. The long diameter and short diameter of the tumor were measured with a vernier caliper. The tumor size was calculated by the formula: (½)×long diameter×(short diameter) 2. The experiment was terminated on DAY 15. After the mice were euthanized and dissected, the tumor was weighed and the tumor inhibition rate was calculated."}, "[5]": {"system": "colorectal cancer (MC38)", "assay": "Colorectal cancer (MC38) tumor-bearing model, GSK583 combined with OXA", "details": "GSK583 1 mg/kg; for tumor growth compared to the vehicle control group: MC38 s.c. in C57BL/6 mice, tumors 100 mm^3 at start, OXA 6 mg/kg i.v. once every 4 days, 4 doses, to DAY 14", "procedure": "According to the method shown in (A and B of FIG. 10), the mice were subcutaneously inoculated with MC38 cells with a concentration of 5×10^6 cells/mL and 0.1 mL/mouse. […] OXA, GSK583, and vehicle were administered intravenously once every 4 days for a total of 4 doses. The day of grouping and administration was recorded as DAY 0. During the administration, the animals were weighed every 3 days. The long diameter and short diameter of the tumor were measured with a vernier caliper. The tumor size was calculated by the formula: (½)×long diameter×(short diameter) 2. The experiment was terminated on DAY 14. After the mice were euthanized and dissected, the tumor was weighed and photographed, and the tumor inhibition rate was calculated."}}}
{"smiles": "CC(=O)O[C@@]12CO[C@@H]1C[C@H](O)[C@@]1(C)C(=O)[C@H](O)C3=C(C)[C@@H](OC(=O)[C@H](O)[C@@H](NC(=O)OC(C)(C)C)c4ccccc4)C[C@@](O)([C@@H](OC(=O)c4ccccc4)[C@H]21)C3(C)C", "note": "[DTX, Docetaxel]", "values": [{"measurement": "tumor weight at the end of the administration", "setting": "[1]; B16-F10 in C57BL/6 mice, GSK583 1 mg/kg, DTX 5 mg/kg i.v., DAY 16, vs control group", "result": "significantly and statistically lower than that of the control group"}, {"measurement": "growth rate of tumor volume", "setting": "[1]; B16-F10 in C57BL/6 mice, GSK583 1 mg/kg, DTX 5 mg/kg i.v., vs control group", "result": "slower than that of the control group"}, {"measurement": "tumor growth compared to the vehicle control group", "setting": "[1]", "result": "significantly inhibited tumor growth"}]}
{"smiles": "Nc1ccn([C@@H]2O[C@H](CO)[C@@H](O)C2(F)F)c(=O)n1", "note": "[GEM, Gemcitabine]", "values": [{"measurement": "tumor weight at the end of the administration", "setting": "[2]; B16-F10 in C57BL/6 mice, GEM 60 mg/kg i.v. every 4 days x4, DAY 15, vs control group", "result": "significantly and statistically lower than that of the control group"}, {"measurement": "growth rate of tumor volume", "setting": "[2]; B16-F10 in C57BL/6 mice, GEM 60 mg/kg i.v. every 4 days x4, vs control group", "result": "slower than that of the control group"}, {"measurement": "tumor growth compared to the vehicle control group", "setting": "[2]", "result": "significantly inhibited tumor growth"}, {"measurement": "growth rate of tumor volume", "setting": "[3]; MC38 in C57BL/6 mice, GEM 40 mg/kg i.v. every 4 days x4", "result": "no significant inhibitory effect"}, {"measurement": "tumor growth compared to the vehicle control group", "setting": "[3]", "result": "no significant inhibitory effect"}]}
{"smiles": "CC(C)(C)S(=O)(=O)c1ccc2nccc(Nc3n[nH]c4ccc(F)cc34)c2c1", "note": "[GSK583]", "values": [{"measurement": "tumor growth compared to the vehicle control group", "setting": "[2]", "result": "no significant inhibitory effect on tumor growth"}, {"measurement": "tumor growth compared to the vehicle control group", "setting": "[4]", "result": "no significant inhibitory effect on tumor growth"}, {"measurement": "tumor growth compared to the vehicle control group", "setting": "[5]", "result": "no significant inhibitory effect on tumor growth"}, {"measurement": "tumor growth compared to the vehicle control group", "setting": "[3]", "result": "no significant inhibitory effect on tumor growth"}, {"measurement": "tumor growth compared to the vehicle control group", "setting": "[1]", "result": "no significant inhibitory effect on tumor growth"}]}
{"smiles": "O=C1[O][Pt]2([NH][C@@H]3CCCC[C@H]3[NH]2)[O]C1=O", "note": "[OXA, Oxaliplatin]", "values": [{"measurement": "growth rate of tumor volume", "setting": "[5]; MC38 in C57BL/6 mice, OXA 6 mg/kg i.v. every 4 days x4", "result": "no significant inhibitory effect"}, {"measurement": "tumor growth compared to the vehicle control group", "setting": "[5]", "result": "no significant inhibitory effect"}]}
